Key:
[1] = target: Matrix metalloproteinase-9 (Rattus norvegicus, UniProt P50282); assay: enzyme-based fluorimetric assay; conditions: pH 7.5; 25 °C
Text: (§1) For this assay, the reagents used as follows. The substrate corresponds to Mca-Pro-Leu-Gly-Leu-Dpa-Ala-Arg 25 mm in assay buffer. This low-fluorescent peptide is cleaved by MMPs to provide Mca-Pro-Leu-Gly, which is intensely fluorescent at an excitation at 340 nm and emission at 405 nm. While the enzymes pro-MMP-2 250 pm and MMP-9 (recombinant catalytic sequence) 500 pm in assay buffer. The assay buffer consists of Tris HCl 0.1 m, pH 7.5, NaCl 0.1 m, CaCl2 10 mm, 0.05% v/v BRIJ35, APMA (p-aminophenylmercuric acetate) 1 mm. This was carried out in 96-well plate, a solution of […] at the appropriate concentration and […] was incubated together at 25 °C for 30 min, and […] of substrate solution was added and the plate was further incubated 3 h at 37 °C. The incubation solutions were quenched with acetic acid ([…] soln.) and their fluorescence was recorded with the help of a plate reader spectrometer. The inhibitory activities were calculated against a control and IC50 curves, derived from 6 different inhibitor concentrations, extrapolated by means of statistical analysis program graphpad prism (v. 4.0; San Diego, CA, USA). Each inhibitor concentration was used in triplicate and the experiments run twice.

[2] = target: 72 kDa type IV collagenase (Rat, UniProt P33436); assay: enzyme-based fluorimetric assay; conditions: pH 7.5; 25 °C
Chain of 72 kDa type IV collagenase (P33436 whole entry): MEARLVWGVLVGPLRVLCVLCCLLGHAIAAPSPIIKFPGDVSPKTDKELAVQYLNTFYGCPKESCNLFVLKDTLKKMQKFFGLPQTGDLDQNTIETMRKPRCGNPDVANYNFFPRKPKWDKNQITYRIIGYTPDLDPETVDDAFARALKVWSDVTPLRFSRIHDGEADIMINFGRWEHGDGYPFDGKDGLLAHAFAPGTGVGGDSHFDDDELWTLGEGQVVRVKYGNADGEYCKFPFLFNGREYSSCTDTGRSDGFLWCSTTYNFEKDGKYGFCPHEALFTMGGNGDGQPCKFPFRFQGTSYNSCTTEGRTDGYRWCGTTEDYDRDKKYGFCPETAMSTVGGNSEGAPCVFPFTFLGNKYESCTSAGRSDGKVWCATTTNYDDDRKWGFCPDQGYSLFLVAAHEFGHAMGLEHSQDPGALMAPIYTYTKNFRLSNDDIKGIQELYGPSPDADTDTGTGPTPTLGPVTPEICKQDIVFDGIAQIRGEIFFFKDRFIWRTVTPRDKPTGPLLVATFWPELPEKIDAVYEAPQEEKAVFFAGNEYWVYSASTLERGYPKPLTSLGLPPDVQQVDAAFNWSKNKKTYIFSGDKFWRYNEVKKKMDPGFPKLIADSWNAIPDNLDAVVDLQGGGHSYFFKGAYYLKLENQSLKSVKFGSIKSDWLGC
Text: as §1

Chain of Matrix metalloproteinase-9 (P50282 whole entry): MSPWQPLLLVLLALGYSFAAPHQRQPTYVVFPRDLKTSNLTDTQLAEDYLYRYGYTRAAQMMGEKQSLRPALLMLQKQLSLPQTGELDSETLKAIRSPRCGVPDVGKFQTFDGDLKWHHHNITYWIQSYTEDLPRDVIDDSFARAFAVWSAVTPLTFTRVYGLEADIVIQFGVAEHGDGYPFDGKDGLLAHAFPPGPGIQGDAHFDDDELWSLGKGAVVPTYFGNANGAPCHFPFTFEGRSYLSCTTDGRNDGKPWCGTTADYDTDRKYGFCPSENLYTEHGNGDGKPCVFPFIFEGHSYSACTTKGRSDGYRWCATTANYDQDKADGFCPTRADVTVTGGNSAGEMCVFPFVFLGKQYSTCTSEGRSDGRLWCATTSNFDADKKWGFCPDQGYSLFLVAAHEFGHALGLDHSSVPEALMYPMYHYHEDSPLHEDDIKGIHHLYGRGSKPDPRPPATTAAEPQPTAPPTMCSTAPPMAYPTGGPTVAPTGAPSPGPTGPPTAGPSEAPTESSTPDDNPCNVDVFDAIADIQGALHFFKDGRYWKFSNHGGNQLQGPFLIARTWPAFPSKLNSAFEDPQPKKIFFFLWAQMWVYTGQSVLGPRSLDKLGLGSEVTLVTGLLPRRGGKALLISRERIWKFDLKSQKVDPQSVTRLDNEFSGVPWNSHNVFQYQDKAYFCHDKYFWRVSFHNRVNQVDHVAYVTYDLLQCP

Structure (SMILES) | IC50 [1] | IC50 [2]
COc1ccc(-c2cc(-c3ccc(NS(=O)(=O)c4ccc(C)cc4)cc3)nn2-c2nc(NCCCN)nc(NCCCN)n2)cc1 [N-(4-(1-(4,6-bis((3-aminopropyl)amino)-1,3,5-triazin-2-yl)-5-(4-methoxyphenyl)-1H-pyrazol-3-yl)phenyl)-4-methylbenzenesulphonamide (8c)] | 156 nM | 189 nM
COc1ccc(-c2cc(-c3ccc(NS(=O)(=O)c4ccc(C)cc4)cc3)nn2-c2nc(Nc3ccc(O)cc3)nc(Nc3ccc(O)cc3)n2)cc1 [N-(4-(1-(4,6-bis((4-hydroxyphenyl)amino)-1,3,5-triazin-2-yl)-5-(4-methoxyphenyl)-1H-pyrazol-3-yl)phenyl)-4-methylbenzenesulphonamide (8e)] | 2.34 nM | 8.12 nM
COc1ccc(Nc2nc(Nc3ccc(OC)cc3)nc(-n3nc(-c4ccc(NS(=O)(=O)c5ccc(C)cc5)cc4)cc3-c3ccc(OC)cc3)n2)cc1 [N-(4-(1-(4,6-bis((4-methoxyphenyl)amino)-1,3,5-triazin-2-yl)-5-(4-methoxyphenyl)-1H-pyrazol-3-yl)phenyl)-4-methylbenzenesulphonamide (8f)] | 10.2 nM | 18.6 nM
COc1ccc(-c2cc(-c3ccc(NS(=O)(=O)c4ccc(C)cc4)cc3)nn2-c2nc(Nc3ccc([N+](=O)[O-])cc3)nc(Nc3ccc([N+](=O)[O-])cc3)n2)cc1 [N-(4-(1-(4,6-bis((4-nitrophenyl)amino)-1,3,5-triazin-2-yl)-5-(4-methoxyphenyl)-1H-pyrazol-3-yl)phenyl)-4-methylbenzenesulphonamide (8h)] | 68.5 nM | 76.6 nM
CCNc1nc(NCC)nc(-n2nc(-c3ccc(NS(=O)(=O)c4ccc(C)cc4)cc3)cc2-c2ccc(OC)cc2)n1 [N-(4-(1-(4,6-bis(ethylamino)-1,3,5-triazin-2-yl)-5-(4-methoxyphenyl)-1H-pyrazol-3-yl)phenyl)-4-methylbenzenesulphonamide (8b)] | 302 nM | 332 nM
CNc1nc(NC)nc(-n2nc(-c3ccc(NS(=O)(=O)c4ccc(C)cc4)cc3)cc2-c2ccc(OC)cc2)n1 [N-(4-(1-(4,6-bis(methylamino)-1,3,5-triazin-2-yl)-5-(4-methoxyphenyl)-1H-pyrazol-3-yl)phenyl)-4-methylbenzenesulphonamide (8a)] | 625 nM | 666 nM
COc1ccc(-c2cc(-c3ccc(NS(=O)(=O)c4ccc(C)cc4)cc3)nn2-c2nc(Nc3ccccc3C)nc(Nc3ccccc3C)n2)cc1 [N-(4-(1-(4,6-bis(o-tolylamino)-1,3,5-triazin-2-yl)-5-(4-methoxyphenyl)-1H-pyrazol-3-yl)phenyl)-4-methylbenzenesulphonamide (8g)] | 58.2 nM | 67.1 nM
COc1ccc(-c2cc(-c3ccc(NS(=O)(=O)c4ccc(C)cc4)cc3)nn2-c2nc(Nc3ccccc3)nc(Nc3ccccc3)n2)cc1 [N-(4-(1-(4,6-bis(phenylamino)-1,3,5-triazin-2-yl)-5-(4-methoxyphenyl)-1H-pyrazol-3-yl)phenyl)-4-methylbenzenesulphonamide (8d)] | 105 nM | 123 nM
COc1ccc(-c2cc(-c3ccc(NS(=O)(=O)c4ccc(C)cc4)cc3)nn2-c2nc(N3CCNCC3)nc(N3CCNCC3)n2)cc1 [N-(4-(1-(4,6-di(piperazin-1-yl)-1,3,5-triazin-2-yl)-5-(4-methoxyphenyl)-1H-pyrazol-3-yl)phenyl)-4-methylbenzenesulphonamide (8i)] | 47.1 nM | 55.3 nM
COc1ccc(-c2cc(-c3ccc(NS(=O)(=O)c4ccc(C)cc4)cc3)nn2-c2nc(N3CCOCC3)nc(N3CCOCC3)n2)cc1 [N-(4-(1-(4,6-dimorpholino-1,3,5-triazin-2-yl)-5-(4-methoxyphenyl)-1H-pyrazol-3-yl)phenyl)-4-methylbenzenesulphonamide (8j)] | 31.2 nM | 42.3 nM

— BindingDB's records for doi:10.1111/cbdd.12807 (Zhejiang Hospital, 2016)
